Measurements taken from patent US20220364056A1, “SHORT-CHAIN FATTY ACID PENTANOATE AS ENHANCER FOR CELLULAR THERAPY AND ANTI-TUMOR THERAPY” (PHILIPPS-UNIVERSITÄT MARBURG, priority 2019, published 2022).

Tests used:
[1] = system: CD8+ cytotoxic T lymphocytes (CTLs); experiment: murine CTLs cultivated under suboptimal conditions with SCFAs; cytokines and effector molecules by flow cytometry and ELISA; type: cell-based
Source text: It is known that the glycolytic metabolic pathway promotes IFN-γ expression and T cell effector function. […] We next investigated if acetylation of H4 was increased at CTL-characteristic loci (Ifnγ, Tbx21 and Eomes) after treatment of CTLs with pentanoate. […] Due to the high level of heterogeneity and plasticity within T lymphocytes, we next investigated possible effects of pentanoate on other CD8^+ T cell subtypes. […] To gain further insight into possible therapeutic strategies, we next investigated the impact of pentanoate on human CD8^+ T lymphocytes.
(§1) (A) Experimental design for the treatment of CTLs with the water-soluble fraction of intestinal content derived from SPF or GF mice. (B and C) Frequencies of IFN-γ- and TNF-α-producing CTLs treated with the extract from luminal content derived from indicated organs. Representative results of two experiments are shown (n=3). (D) ELISA was performed to measure the secretion of TNF-α by CLTs treated as shown in (A). (E) Quantitative measurement of total SCFA amounts in fecal samples of SPF and GF mice (n=5). (F and G) The percentage of IFN-γ^+ TNF-α^+ CTLs treated with the indicated SCFAs for three days (n=3, one of three independent experiments is shown). (H) The secretion of TNF-α from CTLs treated with SCFAs was determined by ELISA (n=3, one of two independent experiments is shown). (I) The fluorogenic HDAC assay was applied to measure the HDAC inhibitory activity of SCFAs on CTLs. The value for unstimulated CTLs was arbitrarily set to 1.0. Four independent experiments were performed. (J and K) Representative contour plots (J) and bar graphs (K) showing the frequency of IFN-γ+ and TNF-α+ cells after pentanoate (2 mM) or VPA (0.5 mM) administration. Three similar experiments were performed. (L and M) The frequency of Eomes- and T-bet-expressing CTLs treated with pentanoate (2 mM) or VPA (0.5 mM) for three days was analyzed by flow cytometry (n=4). (N) ChIP assay showing the acetylation of histone H4 at the promoter regions of Ifnγ and Eomes genes after 24 hours of treatment of CTLs with pentanoate. Data are from pooled chromatin of three mice.
Representative histogram plots (A) and bar graphs (B) are showing the frequency of Annexin V^+ cells. Three similar experiments were performed. (C) Representative effector molecule staining of CD8^+ T cells polarized under suboptimal CTL-inducing conditions, treated with pentanoate or TSA (10 nM Sigma-Aldrich) in presence of 2-DG (1 mM, Sigma-Aldrich) or rapamycin (100 nM, Sigma-Aldrich) for 3 days. Three independent experiments were performed. (D) Western blot analysis of H3Ac and H4Ac in CD8^+ T cells treated with SCFAs for 3 days. (E) Pan-H4Ac ChIP qPCR analysis for Tbx21 promoter accessibility in pentanoate-treated CTLs. Data are from pooled chromatin of three mice. (F and G) CD8^+ T cells isolated from WT and Tbx21^−/− mice were polarized under suboptimal CTL-inducing conditions in presence of increasing pentanoate concentrations. Representative contour plots (F) and bar graphs (G) show the frequency of IFN-γ+ and IL-17A^+ cells. Two similar experiments were performed. […]

mTOR = experiment: phosphorylation of mTOR and S6 in human CTLs; type: cell-based; conditions: three days
Method: (A and B) CTLs were cultured in medium containing 1.0% FCS and treated with pentanoate (2.5 mM) for three days. Representative histogram plots and bar graphs indicate the phoshorylated levels of mTOR (A) and S6 ribosomal protein (B), respectively (n=3 pooled from three independent experiments). (C and D) Human CTLs were cultured in medium containing 1.0% serum and treated with indicated HDACi for three days. Representative histogram plots and bar graphs indicate the phoshorylated levels of mTOR (C) and S6 ribosomal protein (D), respectively (data points represent four individual healthy donors) (E) Measurement of extracellular acidification rate (ECAR) for in vitro generated murine CTLs cultured with or without 2.5 mM pentanoate for three days. ECAR was measured under basal conditions and in response to glucose (10 mM), oligomycin (2 μM), and 2-deoxy-glucose (2-DG, 100 mM). One of three independent experiments is shown.

class I HDAC isoforms = experiment: HDAC inhibition of recombinant class I HDAC isoforms; type: biochemical; conditions: cell-free supernatants vs YCFA medium; TSA as control
[2] = system: class II HDACs (HDAC4, HDAC5, HDAC6 and HDAC9); experiment: HDAC inhibition of recombinant class II HDAC isoforms; type: biochemical
Method: (A) The production of SCFAs, branched-chain fatty acids (BCFAs) and medium-chain fatty acids (MCFAs) by 16 human commensals was measured by GC-MS. All bacteria were grown in vitro until stationary growth phase before the measurement of fatty acids in supernatants. (B and C) HDAC inhibition of recombinant class I and class II HDAC isoforms by cell-free supernatants derived from 16 members of human commensal community. Significance was tested against YCFA medium. (D) Impact of bacterial SCFAs, BCFAs and MSCFAs on the activity of class I and II HDAC enzymes. TSA was used as a control pan-HDAC inhibitor.

human CD8+ T lymphocytes = human CD8+ T lymphocytes differentiated into CTLs, flow cytometry; type: cell-based; conditions: healthy donors
Method: (A and B) CD8^+ T cells isolated from spleens and LNs were polarized under Tc17-inducing conditions and treated with pentanoate for 3 days. Representative contour plots (A) and bar graphs (B) indicate the frequency of IL-17^+ and IFN-γ+ cells. Three similar experiments were performed. (C and D) CD8^+ T cells isolated from spleens and LNs were polarized under Tc9-inducing conditions and treated with pentanoate for 3 days. Representative contour plots (C) and bar graphs (D) are showing the frequency of IL-9^+ and IFN-γ+ cells. Three similar experiments were performed. (E and F) The expression of granzyme B, IFN-γ and Eomes in pentanoate-treated human CTLs was analysed by flow cytometry. Five independent experiments were performed (E). For Eomes, mean fluorescence intensity (MFI) values are shown (F, n=3).
(A) CD8^+ T cells isolated from peripheral blood of healthy donors were differentiated into CTLs in presence or absence of indicated HDACi. Representative contour plots and dot plots indicate the frequency of TNF-α+ and IFN-γ^+ cells. Data points in the graphs represent individual donors (n=4, performed in 4 independent experiments) (B-G) Phenotyping of pentanoate-treated ROR1-specific CD8^+ CAR T cells (CARROR1 T cells). (B) Experimental setup for the functional analysis is shown. (C) The cytokine secretion (IFN-γ and TNF-α) was analysed in supernatants of pentanoate-treated CARROR1 T cells by ELISA. (D) The surface expression of CD25 was measured by flow cytometry. (E) The secretion of IL-2 was detected in supernatants of CARROR1 T cells by ELISA. (F) Proliferation of CARROR1 T cells was determined by CFSE labelling. CARROR1 T cells pre-treated with pentanoate were stained with CFSE and subsequently co-cultured with […] cells in the absence of pentanoate. CD8^+ T cells without the CAR construct were used as mock control cells. […] The percentage of lysed target cells was determined in 1 hour intervals (effector-to-target cell (E:T) ratio=2.5:1). […]

histones H3 and H4 = experiment: Western blot of H3Ac and H4Ac in CD8+ T cells; type: cell-based, murine; conditions: SCFAs for 3 days
Method: Representative histogram plots (A) and bar graphs (B) are showing the frequency of Annexin V^+ cells. Three similar experiments were performed. (C) Representative effector molecule staining of CD8^+ T cells polarized under suboptimal CTL-inducing conditions, treated with pentanoate or TSA (10 nM Sigma-Aldrich) in presence of 2-DG (1 mM, Sigma-Aldrich) or rapamycin (100 nM, Sigma-Aldrich) for 3 days. Three independent experiments were performed. (D) Western blot analysis of H3Ac and H4Ac in CD8^+ T cells treated with SCFAs for 3 days. (E) Pan-H4Ac ChIP qPCR analysis for Tbx21 promoter accessibility in pentanoate-treated CTLs. Data are from pooled chromatin of three mice. (F and G) CD8^+ T cells isolated from WT and Tbx21^−/− mice were polarized under suboptimal CTL-inducing conditions in presence of increasing pentanoate concentrations. Representative contour plots (F) and bar graphs (G) show the frequency of IFN-γ+ and IL-17A^+ cells. Two similar experiments were performed.

HDAC = experiment: fluorogenic HDAC assay on CTL-derived cell lysates; type: biochemical, murine; conditions: unstimulated CTLs set to 1.0
Method: as §1, with “(N) ChIP assay showing the acetylation of histone H4 at the promoter regions of Ifnγ and Eomes genes after 24 hours of treatment of CTLs with pentanoate. Data are from pooled chromatin of three mice.” left out

SMILES: O=CC[C@@H](O)[C@H](O)[C@H](O)CO [2-DG, 2-deoxyglucose, reference compound]
- IFN-γ production in CTLs ([1]; 2-DG 1 mM or rapamycin 100 nM, 3 days): reduction

SMILES: CC(C)(CNC(=O)c1cccc(-c2noc(C(F)(F)F)n2)c1)c1coc(-c2ccccc2)n1 [TMP-195, reference compound]
- phosphorylation level of S6 ribosomal protein (mTOR): neither mocetinostat (HDAC class I inhibitor MGCD0103) nor TMP 195 (HDAC class II inhibitor) had a significant effect

SMILES: CC(/C=C/C(=O)NO)=C\[C@@H](C)C(=O)c1ccc(N(C)C)cc1 [TSA, trichostatin A, reference compound]
- activity of class I HDAC isoforms (class I HDAC isoforms): inhibited
- reversal of the effect on granzyme B+IFN-γ+ cells by rapamycin ([1]; rapamycin 100 nM co-treatment): could not be reversed
- percentages of granzyme B+IFN-γ+ CD8+ T cells ([1]; vs control CTLs, TSA 10 nM, 3 days): substantially enhanced
- activity of class II HDACs [2]: inhibited

SMILES: Nc1ccccc1NC(=O)c1ccc(CNc2nccc(-c3cccnc3)n2)cc1 [mocetinostat, reference compound]
- phosphorylation level of S6 ribosomal protein (mTOR): neither mocetinostat (HDAC class I inhibitor MGCD0103) nor TMP 195 (HDAC class II inhibitor) had a significant effect
- expression of TNF-α and IFN-γ (human CD8+ T lymphocytes): promoted the similar effects

SMILES: CCC(=O)O [propionate, reference compound]
- acetylation of histones H3 and H4 (histones H3 and H4): increased acetylation
- HDAC activity of CTL-derived cell lysates (HDAC): strong reduction of HDAC activity
